Experimental data published in patent publication US20150307938A1, “METHOD TO IDENTIFY A NOVEL CLASS OF IMMUNOLOGIC ADJUVANTS” (Lancell, L.L.C., priority 2011, published 2015).

System: skin
Assay: Affymetrix microarray of skin, DBP-4 hr and analogs vs. untreated; gene selection by log-2 fold change, Wilcoxon, Kendall tau (Tables 8, 9)
Type: in vivo, mouse
Details: mouse, in vivo

CCCCOC(=O)c1ccccc1C(=O)OCCCC [DBP, dibutylphthalate]
Nrap NM_198059_at ≧2-Fold change: No | Nusap1 NM_133851_at ≧2-Fold change: No | Ogfrl1 NM_001081079_at ≧2-Fold change: No | Olr1 NM_138648_at ≧2-Fold change: No | Otud7a (NM_130880_at) ≧2-Fold change: Yes | Oxr1 NM_001130163_at ≧2-Fold change: No | Oxr1 NM_001130164_at ≧2-Fold change: No | Oxr1 NM_001130165_at ≧2-Fold change: No | Oxr1 NM_001130166_at ≧2-Fold change: No | Pde4b (NM_019840_at) ≧2-Fold change: Yes | Pdk4 (NM_013743_at) ≧2-Fold change: Yes | Pgam2 NM_018870_at ≧2-Fold change: No | Pigyl NM_001082532_at ≧2-Fold change: No | Plaur (NM_011113_at) ≧2-Fold change: Yes | Plek (NM_019549_at) ≧2-Fold change: Yes | Plscr1 (NM_011636_at) ≧2-Fold change: Yes | Pmaip1 (NM_021451_at) ≧2-Fold change: Yes | Pparg NM_001127330_at ≧2-Fold change: No | Ppih NM_001110129_at ≧2-Fold change: No | Prg4 NM_021400_at ≧2-Fold change: No | Prss22 (NM_133731_at) ≧2-Fold change: Yes | Ptges (NM_022415_at) ≧2-Fold change: Yes | Pyy (NM_145435_at) ≧2-Fold change: Yes | Rab20 (NM_011227_at) ≧2-Fold change: Yes | Ramp3 (NM_019511_at) ≧2-Fold change: Yes | Retnla NM_020509_at ≧2-Fold change: No | Rffl NM_001007465_at ≧2-Fold change: No | Rgs1 (NM_015811_at) ≧2-Fold change: Yes | Rn18s NR_003278_at ≧2-Fold change: No | Rnf19b (NM_029219_at) ≧2-Fold change: Yes | Rpl3l NM_025425_at ≧2-Fold change: No | Saa3 (NM_011315_at) ≧2-Fold change: Yes | Slc5a1 (NM_019810_at) ≧2-Fold change: Yes | Slc7a5 (NM_011404_at) ≧2-Fold change: Yes | Slc10a6 (NM_029415_at) ≧2-Fold change: Yes | Slc15a3 (NM_023044_at) ≧2-Fold change: Yes | Slc25a25 (NM_146118_at) ≧2-Fold change: Yes | Slc34a2 (NM_011402_at) ≧2-Fold change: Yes | Slc39a8 (NM_026228_at) ≧2-Fold change: Yes | Slc39a14 NM_001135151_at ≧2-Fold change: No | Slfn2 (NM_011408_at) ≧2-Fold change: Yes | Slfn4 (NM_011410_at) ≧2-Fold change: Yes | Sln NM_025540_at ≧2-Fold change: No | Slpi (NM_011414_at) ≧2-Fold change: Yes | Smox (NM_145533_at) ≧2-Fold change: Yes | Smpx NM_025357_at ≧2-Fold change: No | Stfa3 (NM_025288_at) ≧2-Fold change: Yes | Timp1 (NM_011593_at) ≧2-Fold change: Yes | Tlr2 (NM_011905_at) ≧2-Fold change: Yes | Tnf (NM_013693_at) ≧2-Fold change: Yes | Tnfrsf9 NM_001077508_at ≧2-Fold change: No | Tnfrsf9 NM_001077509_at ≧2-Fold change: No | Tnfrsf12a (NM_013749_at) ≧2-Fold change: Yes | Tnni1 NM_021467_at ≧2-Fold change: No | Trdn NM_029726_at ≧2-Fold change: No | Trf NM_133977_at ≧2-Fold change: No | Trp63 NM_001127259_at ≧2-Fold change: No | Trp63 NM_001127260_at ≧2-Fold change: No | Trp63 NM_001127262_at ≧2-Fold change: No | Trp63 NM_001127264_at ≧2-Fold change: No | Tslp (NM_021367_at) ≧2-Fold change: Yes | Tslp (NR_033206_at) ≧2-Fold change: Yes | Ttn NM_028004_at ≧2-Fold change: No | Tubb6 (NM_026473_at) ≧2-Fold change: Yes | Uap1 (NM_133806_at) ≧2-Fold change: Yes | Wbp1 NM_001083922_at ≧2-Fold change: No | Wbp1 NM_001083923_at ≧2-Fold change: No | Wfdc2 NM_026323_at ≧2-Fold change: No | Zc3h12a (NM_153159_at) ≧2-Fold change: Yes | Zfp36 (NM_011756_at) ≧2-Fold change: Yes | Zfp68 NM_001044747_at ≧2-Fold change: No | Zfp187 NM_001013786_at ≧2-Fold change: No | Zfp518b NM_001081144_at ≧2-Fold change: No | Zfp593 (NM_024215_at) ≧2-Fold change: Yes | Zfp943 NM_001025373_at ≧2-Fold change: No | ≧2-Fold change: No and Yes | ≧2-Fold change: 1810046J19Rik: No | ≧2-Fold change: 4933434E20Rik: No | ≧2-Fold change: Abhd6: No | ≧2-Fold change: Acad8: No | ≧2-Fold change: Ak2: No | ≧2-Fold change: Akr1e1: No | ≧2-Fold change: Avpr1a: No | ≧2-Fold change: B4galt1: No | ≧2-Fold change: Bphl: No | ≧2-Fold change: Cdkl2: No | ≧2-Fold change: Cep70: No | ≧2-Fold change: Cirh1a: No | ≧2-Fold change: Clec14a: No | ≧2-Fold change: Commd4: No | ≧2-Fold change: Cr1l: No | ≧2-Fold change: Cyth1: No | ≧2-Fold change: D16Ertd472e: No | ≧2-Fold change: Dcxr: No | ≧2-Fold change: Dda1: No | ≧2-Fold change: Diablo: No | ≧2-Fold change: Dmap1: No | ≧2-Fold change: Dnajc4: No | ≧2-Fold change: Eid1: No | ≧2-Fold change: Eif6: No | ≧2-Fold change: Erlec1: No | ≧2-Fold change: Fam134b: No | ≧2-Fold change: Fbxo25: No | ≧2-Fold change: Fgf13: No | ≧2-Fold change: Flt1: No | ≧2-Fold change: Fmo5: No | ≧2-Fold change: Ftsj3: No | ≧2-Fold change: Gcnt2: No | ≧2-Fold change: Gmcl1: No | ≧2-Fold change: Gpn3: No | ≧2-Fold change: Gstz1: No | ≧2-Fold change: Gtf2h2: No | ≧2-Fold change: Gtf3a: No | ≧2-Fold change: Hsdl2: No | ≧2-Fold change: Icos: No | ≧2-Fold change: Ifngr1: No | ≧2-Fold change: Inpp5d: No | ≧2-Fold change: Itgax: No | ≧2-Fold change: Itk: No | ≧2-Fold change: Krt17: No | ≧2-Fold change: Map3k14: No | ≧2-Fold change: Mdp1: No | ≧2-Fold change: Meis1: No | ≧2-Fold change: Mkrn3: No | ≧2-Fold change: Mtcp1: No | ≧2-Fold change: Mum1: No | ≧2-Fold change: Myd88: No | ≧2-Fold change: Nagk: No | ≧2-Fold change: Ndufaf3: No | ≧2-Fold change: Nek3: No | ≧2-Fold change: Nfkb2: No | ≧2-Fold change: Nicn1: No | ≧2-Fold change: Nme3: No | ≧2-Fold change: Ntpcr: No | ≧2-Fold change: Orc3: No | ≧2-Fold change: Padi1: No | ≧2-Fold change: Panx1: No | ≧2-Fold change: Pfdn2: No | ≧2-Fold change: Phtf1: No | ≧2-Fold change: Pigp: No | ≧2-Fold change: Pkp4: No | ≧2-Fold change: Plk3: No | ≧2-Fold change: Polr2g: No | ≧2-Fold change: Pparg: No | ≧2-Fold change: Ppp1r7: No | ≧2-Fold change: Prokr1: No | ≧2-Fold change: Ptpn1: No | ≧2-Fold change: Rabgef1: No | ≧2-Fold change: Rai12: No | ≧2-Fold change: Rbbp6: No | ≧2-Fold change: Rpl7l1: No | ≧2-Fold change: Sema4d: No | ≧2-Fold change: Siae: No | ≧2-Fold change: Sirt1: No | ≧2-Fold change: Slc9a3r1: No | ≧2-Fold change: Slc30a4: No | ≧2-Fold change: Slc35a1: No | ≧2-Fold change: Smarcb1: No | ≧2-Fold change: Srsf6: No | ≧2-Fold change: Stx17: No | ≧2-Fold change: Tmed1: No | ≧2-Fold change: Tmem208: No | ≧2-Fold change: Tnfrsf1a: No | ≧2-Fold change: Tnfrsf9: No | ≧2-Fold change: Trappc2l: No | ≧2-Fold change: Tril: No | ≧2-Fold change: Trim12a: No | ≧2-Fold change: Trip4: No | ≧2-Fold change: Trp63: No | ≧2-Fold change: Trpv2: No | ≧2-Fold change: Tsn: No | ≧2-Fold change: Ufc1: No | ≧2-Fold change: Ulk2: No | ≧2-Fold change: Wbp1: No | ≧2-Fold change: Zfp68: No | ≧2-Fold change: Zfp90: No | ≧2-Fold change: Zkscan3: No | ≧2-Fold change: Zkscan6: No
